Laboratory results: patent US11917959B2, “Multi-ear system to enhance monocot plant yield” (Monsanto Technology LLC, priority 2015, dated 2024)

Tested on: diploid maize plant
Experiment: Multibud induction in vitro, embryo axis method (Example 8)
Assay type: in vivo
Method: Seeds of a diploid maize plant were surface sterilized comprising immersion using standard methods of the art and then germinated in vitro in growth media. One of the resulting seedlings was dissected from its seed two days after germination (embryo axis method). The dissected axis was then subjected to a multibud induction treatment comprising transfer to fresh multibud induction media containing cytokinin in the form of 10 mg/L BAP. After seven days in the multibud bud induction media, the treated seedlings were transferred back to a hormone-free regeneration media. […] These multibuds were dissected from the mother plant and transferred to rooting media comprising IBA and IAA. After approximately one week, the multibud-derived plants were transplanted into 10 inch pots and allowed to grow in a greenhouse until it was clear that each autonomously-growing multibud-derived shoot had formed ears and tassels that nicked. Each ear was then pollinated from the tassel growing in the same pot and then all plants were allowed to grow in greenhouse conditions until seed set.

c1ccc(CNc2ncnc3nc[nH]c23)cc1 [BAP, 6-Benzylaminopurine, N-(Phenylmethyl)-7H-pruin-6-amine] was tested, and the “seed borne by ears of multibud-derived plants” value (10 mg/L BAP) was “dozens of seed each” and the multibud formation (10 mg/L BAP for seven days, after approximately twenty days) was “induced multibuds could be seen growing from the nodal regions of the stem”.
